Key:
Test in all cases: relative viability (nuclei count vs DMSO), 5 days (fraction); higher = more cells survive
BGJ398 + Dasatinib = compound: CCN1CCN(c2ccc(Nc3cc(N(C)C(=O)Nc4c(Cl)c(OC)cc(OC)c4Cl)ncn3)cc2)CC1 [BGJ398] + Cc1nc(Nc2ncc(C(=O)Nc3c(C)cccc3Cl)s2)cc(N2CCN(CCO)CC2)n1 [Dasatinib] (partner 0.075 µM)
Method in brief: (§1)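 Relative viability divides the nuclei count in treated wells by that in vehicle wells. Lung cancer cell lines were seeded in 1536-well plates, dosed by pin tool the next day, and fixed and stained after 5 days in one step with final 0.05% Triton X-100, 1% formaldehyde and 1 ug/ml Hoechst. Dosing was a single drug or a fixed anchor-drug dose plus five library-drug doses (not always all listed) in √10 steps, and values are medians of duplicate plates imaged at 4×.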

BGJ398 + Luminespib = compound: CCN1CCN(c2ccc(Nc3cc(N(C)C(=O)Nc4c(Cl)c(OC)cc(OC)c4Cl)ncn3)cc2)CC1 [BGJ398] + CCNC(=O)c1noc(-c2cc(C(C)C)c(O)cc2O)c1-c1ccc(CN2CCOCC2)cc1 [Luminespib] (partner 0.01 µM)
Method in brief: as §1

[1] = compound: C1=CC2=NC=CN=C2C=C1/C=C/3\C(=O)NC(=O)S3 + CC1(C)CCC(c2ccc(Cl)cc2)=C(CN2CCN(c3ccc(C(=O)NS(=O)(=O)c4ccc(N[C@H](CCN5CCOCC5)CSc5ccccc5)c(S(=O)(=O)C(F)(F)F)c4)cc3)CC2)C1 [Navitoclax] (partner 0.5 µM)
Method in brief: as §1

[2] = compound: C1=CC2=NC=CN=C2C=C1/C=C/3\C(=O)NC(=O)S3 + CS(=O)(=O)CCNCc1ccc(-c2ccc3ncnc(Nc4ccc(OCc5cccc(F)c5)c(Cl)c4)c3c2)o1 [Lapatinib] (partner 2 µM)
Method in brief: as §1

Row | Cell Line | relative viability (BGJ398 + Dasatinib; first compound 0.01 µM) | relative viability (BGJ398 + Dasatinib; first compound 0.03162 µM) | relative viability (BGJ398 + Dasatinib; first compound 0.1 µM) | relative viability (BGJ398 + Dasatinib; first compound 0.3162 µM) | relative viability (BGJ398 + Dasatinib; first compound 1 µM) | relative viability (BGJ398 + Luminespib; first compound 0.01 µM) | relative viability (BGJ398 + Luminespib; first compound 0.03162 µM) | relative viability (BGJ398 + Luminespib; first compound 0.1 µM) | relative viability (BGJ398 + Luminespib; first compound 0.3162 µM) | relative viability (BGJ398 + Luminespib; first compound 1 µM) | relative viability ([1]; first compound 0.02 µM) | relative viability ([1]; first compound 0.06325 µM) | relative viability ([1]; first compound 0.2 µM) | relative viability ([1]; first compound 0.6325 µM) | relative viability ([1]; first compound 2 µM) | relative viability ([2]; first compound 0.02 µM) | relative viability ([2]; first compound 0.06325 µM) | relative viability ([2]; first compound 0.2 µM) | relative viability ([2]; first compound 0.6325 µM) | relative viability ([2]; first compound 2 µM)
1 | NCI-H1975 | 0.359 | 0.449 | 0.378 | 0.34 | 0.316 | 0.218 | 0.179 | 0.204 | 0.237 | 0.261 | 0.998 | 1.12 | 1.04 | 0.974 | 0.981 | 0.707 | 1.24 | 0.907 | 0.84 | 0.791
2 | NCI-H1623 | 0.586 | 0.525 | 0.564 | 0.525 | 0.478 | 0.544 | 0.434 | 0.501 | 0.472 | 0.483 |  |  |  |  |  |  |  |  |  | 
3 | HCC-44 |  |  |  |  |  | 0.974 | 1.11 | 1.32 | 1.09 | 0.942 | 0.969 | 1.02 | 0.946 | 1.02 | 0.892 | 0.961 | 1.09 | 0.975 | 0.993 | 0.793
4 | NCI-H1703 |  |  |  |  |  |  |  |  |  |  | 1.19 | 1.89 | 1.24 | 0.954 | 1 | 1.06 | 1.29 | 1.07 | 0.946 | 0.89
5 | Calu-6 |  |  |  |  |  |  |  |  |  |  | 0.848 | 0.895 | 0.782 | 0.853 | 0.87 | 1.05 | 1.14 | 0.97 | 1.06 | 1
6 | EBC-1 |  |  |  |  |  |  |  |  |  |  | 0.43 | 0.437 | 0.545 | 0.38 | 0.51 | 0.221 | 0.203 | 0.191 | 0.189 | 0.231
7 | NCI-H358 | 0.145 | 0.154 | 0.135 | 0.169 | 0.205 | 0.449 | 0.268 | 0.394 | 0.372 | 0.289 |  |  |  |  |  | 0.554 | 0.497 | 0.461 | 0.359 | 0.274
8 | HCC-78 | 0.385 | 0.375 | 0.34 | 0.388 | 0.362 |  |  |  |  |  | 0.667 | 0.641 | 0.741 | 0.733 | 0.767 | 0.701 | 0.729 | 0.91 | 0.554 | 0.168
9 | IA-LM |  |  |  |  |  |  |  |  |  |  | 0.71 | 0.943 | 0.91 | 0.96 | 0.845 | 0.69 |  | 0.698 | 0.771 | 0.65
10 | NCI-H650 | 0.414 | 0.515 | 0.526 | 0.45 | 0.401 | 0.803 | 0.913 | 0.784 | 0.84 | 0.98 |  |  |  |  |  | 1.13 | 1.1 | 1.09 | 0.835 | 0.5
11 | ChaGo-K-1 | 0.598 | 0.582 | 0.613 | 0.545 | 0.627 | 0.595 | 0.673 | 0.724 | 0.577 | 0.651 | 1.06 | 1.67 | 1.28 | 0.924 | 0.726 |  |  |  |  | 
12 | NCI-H522 | 0.641 | 0.837 | 0.785 | 0.779 | 0.76 | 1.21 | 1.4 | 1.09 | 0.99 | 1.04 |  |  |  |  |  |  |  |  |  | 
13 | NCI-H1299 |  |  |  |  |  |  |  |  |  |  | 1.04 | 1.08 | 1.04 | 1.04 | 1.06 | 0.962 | 1.04 | 0.946 | 0.965 | 0.993
14 | NCI-H2342 | 0.321 | 0.33 | 0.334 | 0.318 | 0.295 | 0.732 | 0.701 | 0.96 | 0.754 | 0.746 |  |  |  |  |  |  |  |  |  | 
15 | SW 900 | 0.448 | 0.388 | 0.352 | 0.383 | 0.232 | 0.133 | 0.201 | 0.175 | 0.167 | 0.153 |  |  |  |  |  |  |  |  |  | 
16 | HCC-366 | 0.626 | 0.681 | 0.793 | 0.6 | 0.558 |  |  |  |  |  | 1.1 | 0.776 | 1.1 | 1.1 | 0.897 | 0.999 | 0.927 | 1.03 | 0.905 | 1.04
17 | A549 |  |  |  |  |  |  |  |  |  |  | 1.24 | 1.43 | 1.22 | 1.02 | 1.11 | 0.893 | 1.04 | 1.04 | 0.9 | 0.874
18 | NCI-H661 | 0.835 | 0.854 | 0.897 | 0.79 | 0.746 | 0.926 | 0.936 | 0.937 | 0.851 | 0.852 |  |  |  |  |  | 0.46 | 0.495 | 0.464 | 0.45 | 0.39
19 | NCI-H1563 | 0.461 | 0.491 | 0.432 | 0.391 | 0.329 | 0.492 | 0.525 | 0.499 | 0.556 | 0.544 |  |  |  |  |  | 0.876 | 0.854 | 0.898 | 0.867 | 0.873
20 | ABC-1 | 0.504 | 0.539 | 0.608 | 0.545 | 0.515 | 0.795 | 0.782 | 0.507 | 0.912 | 0.876 |  |  |  |  |  | 1.06 | 0.754 | 1.18 | 1 | 1.02
21 | LCLC-103H | 0.471 | 0.446 | 0.447 | 0.487 | 0.381 | 0.982 | 0.961 | 1.07 | 0.931 | 0.708 |  |  |  |  |  |  |  |  |  | 
22 | NCI-H441 | 0.577 | 0.83 | 0.542 | 0.672 | 0.607 | 0.453 | 0.346 | 0.318 | 0.383 | 0.371 | 0.523 | 0.562 |  | 0.771 | 0.553 |  |  |  |  | 
